From patent US10253255B2, “Phosphorescent nanoparticles and their uses in biosensing and bioimaging” (University of North Texas, priority 2015, dated 2019)

What was measured:
SNU-5 cells = assay: MTT cell viability (cytotoxicity); conditions: SNU-5 cell lines, buffered aqueous solution, FIG. 15
Description: SNU-5 cells were purchased from ATCC (cat. # CRL-5973) (American Type Culture Collection, Manassas, Va.), and maintained in Iscove's Modified Dulbecco's Medium (IMDM) (ATCC, cat. #30-2005) with 10% FBS (Fisherbrand Research Grade Fetal Bovine Serum, cat. #03-600-511) (Fisher Scientific UK Ltd., Loughborough). Cells (10,000/well) were seeded on 96-well plates and the desired particle amounts were added to the wells. The plates were incubated for an additional 24 h at 37° C. (5% CO2). After incubation, cell viability was evaluated using MTT. MTT dissolved in culture media (5 mg/mL) was added to each well (25 L/well). The cells were incubated for 4 h at 37° C. (5% CO2) after which time 0.08 M HCl in 2-propanol (100 L/well) was added. Light absorption was measured on a Synergy 2 multi-mode microplate reader (BioTek, Winooski, Vt.). The viability of the cells exposed to particles was expressed as a percentage of the viability of cells grown in the absence of particles on the same plate.
Cells were grown to ˜90% confluence in 96 well plate format in complete growth media containing 10% fetal bovine serum. PCHNPs or TPPTs in 0.1 wt % chitosan were dosed on cells at concentrations ranging from 0.5 to 200 μg/mL. Viability after 24 h of exposure was evaluated using MTT reagent and compared to healthy cells on the same plate. […]

[1] = In vitro hypoxia detection by Pt—POP (epi-fluorescence microscope); conditions: Pt—POP aqueous solution in a Petri dish
Source text: For identification of hypoxic environments, Pt—POP has been used. The efficiency of Pt—POP as an oxygen sensor is shown in FIG. 16, including its effective usage for live bioimaging applications. […] The progressive phosphorescence intensity signal increase immediately after oxygen levels are decreased below 20% for the Pt—POP aqueous solution in a Petri dish should be noted. Results for this sensor in conjunction with the excellent animal model for hypoxia, C. elegans worms, are shown in FIG. 17, whereas similar results in E. coli bacteria and in D. rerio zebra fish are shown in FIGS. 18 and 19, respectively. In FIG. 18, conditions were: 18A: E. coli bacteria with 64X, DIC; 18B: E. coli bacteria with 64X, 405-520,222 g, 0.4 ms; 18C: E. coli bacteria incubated with Pt—POP 64X, 405-520,222 g, 0.4 ms; 18D: E. coli bacteria incubated with Pt—POP on 8th day 64X, 405-520,222 g, 0.4 ms. In FIG. 19, pictures were taken for stationary fish directly after injection (A) and 7 minutes after induced hypoxia (B), and for a swimming fish (C).

[2] = molecular target: T1, Bovine Serum Albumin (BSA) (Bos taurus, UniProt P02769); assay: Labelling of BSA with Pt—POP, absorbance after dialysis; type: binding; conditions: after 24 hours of dialysis
T1 construct: purchased Sigma-Aldrich
Source text: A common model protein (BSA=bovine serum albumin) was labeled with Pt—POP to enable BSA differentiation, with oxygen sensitivity, in biological media.

[3] = Storage and solution stability

T1 sequence (P02769 25-607): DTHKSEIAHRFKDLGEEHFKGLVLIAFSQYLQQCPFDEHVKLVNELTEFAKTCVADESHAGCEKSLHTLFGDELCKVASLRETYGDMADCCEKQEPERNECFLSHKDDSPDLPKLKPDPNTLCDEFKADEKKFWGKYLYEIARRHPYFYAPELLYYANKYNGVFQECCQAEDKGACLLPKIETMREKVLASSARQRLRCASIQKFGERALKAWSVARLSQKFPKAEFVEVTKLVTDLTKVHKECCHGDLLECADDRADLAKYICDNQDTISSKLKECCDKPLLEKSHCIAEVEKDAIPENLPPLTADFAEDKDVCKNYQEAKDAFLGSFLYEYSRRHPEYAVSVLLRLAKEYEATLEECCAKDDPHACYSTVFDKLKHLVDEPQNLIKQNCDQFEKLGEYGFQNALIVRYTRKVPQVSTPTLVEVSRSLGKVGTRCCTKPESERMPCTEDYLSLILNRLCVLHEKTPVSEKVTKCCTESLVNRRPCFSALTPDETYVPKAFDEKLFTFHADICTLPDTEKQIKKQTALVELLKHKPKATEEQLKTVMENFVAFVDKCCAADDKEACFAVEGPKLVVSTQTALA

Molecule | biological toxicity (MTT assay) (SNU-5 cells) | oxygen level below which phosphorescence intensity signal increases [1] | absorbance of PBS control lower than BSA sample (binding to BSA) [2] | stability in solution ([3]; in presence of a biocompatible polymer such as chitosan or PAN) | stability in solution ([3]; without polymer)
O=S(=O)([O-])c1cccc(P(c2cccc(S(=O)(=O)[O-])c2)c2cccc(S(=O)(=O)[O-])c2)c1.[Na+].[Na+].[Na+] [TPPTS, 3,3′,3″-Phosphanetriyltris(benzenesulfonic acid) trisodium salt, reference compound] | benign |  |  |  | 
Na8[Au(TPPTS)3] [AuP] | benign |  |  |  | 
M4[Pt2(P2O5H2)4].2H2O [Pt—POP] |  | below 20% | approximately 10 times | dramatically enhanced from minutes to years | long-term instability
